What was measured:
[1] = system: Chikungunya virus; assay: Antiviral activity against Chikungunya virus Indian Ocean strain 899 infected in African green monkey Vero cells assessed as inhibition of viral-induced cytopathic effect measured on day 5 post infection by MTS/PMS assay; format: functional, organism-based, Indian Ocean 899; details: for EC50 / EC90: Chikungunya virus, Indian Ocean 899, Vero, 120 h
[2] = system: Chikungunya virus; assay: Antiviral activity against Chikungunya virus Indian Ocean strain 899 infected in African green monkey Vero cells assessed as inhibition of viral-induced cytopathic effect by measuring concentration required for maximum activity measured on day 5 post infection by MTS/PMS assay; format: functional, Indian Ocean 899
[3] = Cytotoxicity against African green monkey Vero cells by MTS/PMS assay; format: cell-based; details: chlorocebus sabaeus

| Compound | Imax [1] [%] | EC50 [1] [µM] | EC90 [1] [µM] | Activity [2] [µM] | CC50 [3] [µM] |
| --- | --- | --- | --- | --- | --- |
| COc1ccc(/C=C/C(=O)N/N=C/c2ccc(C)cc2)cc1 | 13 | > 112 | > 112 | 112 | – |
| CCOc1ccc(-c2nnc(Cc3ccc(C(C)(C)C)cc3)o2)cc1OCC | 15 | 39.7 | – | 131.4 | – |
| Cc1ccc(-c2nnc(Cc3ccc(C(C)(C)C)cc3)o2)cc1 | 100 | 17.9 | 22.7 | 27.2 | – |
| Cc1ccc(/C=N/NC(=S)NCCc2ccccc2)cc1 | 12 | > 336 | > 336 | 56 | – |
| Cc1ccc(/C=N/NC(=O)c2ccc3ccccc3n2)cc1 | 3 | > 346 | > 346 | 346 | – |
| CCOc1ccc(/C=N/NC(=O)/C=C/c2ccc(C(C)C)cc2)cc1OCC | 30 | > 29.2 | > 29.2 | 8 | – |
| O=C(N/C=C/c1ccccc1)Nc1ccc(O)cc1 | 2 | > 393 | > 393 | 197 | – |
| Cc1ccc(/C=N/NC(=O)c2cc3ccccc3[nH]2)cc1 | 45 | > 361 | > 361 | 361 | – |
| C/C(=N\NC(=O)/C=C/c1ccc(C(C)C)cc1)c1ccc(C2CCCCC2)cc1 | 13 | > 193 | > 193 | 193 | – |
| Cc1ccc(/C=N/NC(=O)c2ccc3ccccc3c2)cc1 | 10 | > 347 | > 347 | 347 | – |
| Cc1ccc(/C=N/NC(=O)c2cnc3ccccc3c2)cc1 | 27 | > 346 | > 346 | 346 | – |
| CCOc1ccc(-c2nnc(/C=C/c3ccc(C(C)(C)C)cc3)o2)cc1OCC | 100 | 29 | 88.2 | 127.4 | – |
| Cc1ccc(CNC(=O)N/C=C/c2ccccc2)cc1 | 18 | > 376 | > 376 | 376 | – |
| Cc1ccc2[nH]c(NC(=O)/C=C/c3ccc(C(C)(C)C)cc3)nc2c1 | 47 | > 300 | > 300 | 300 | – |
| COc1ccc(CNC(=O)N/C=C/c2ccccc2)cc1OC | 13 | > 320 | > 320 | 320 | – |
| C/C(=N\NC(=O)/C=C/c1ccc(-c2ccccc2)cc1)c1ccc(C2CCCCC2)cc1 | 15 | > 29.6 | > 29.6 | 30 | – |
| CCOc1ccc(/C=N/NC(=O)/C=C/c2ccc(-c3ccccc3)cc2)cc1OCC | 47 | > 80.2 | > 80.2 | 120 | – |
| CCOc1ccc(/C=N/NC(=O)N/C=C/c2ccc(C(C)(C)C)cc2)cc1OCC | 49 | > 100 | > 100 | 100 | – |
| Cc1ccc(C(=O)NNC(=O)/C=C/c2ccc(C(C)(C)C)cc2)cc1 | 9 | > 99.1 | > 99.1 | 99.1 | – |
| CCOc1ccc(/C=N/NC(=O)c2cnc3ccccc3c2)cc1OCC | 3 | > 275 | > 275 | 275 | – |
| Cc1ccc2[nH]c(NC(=O)CCc3ccc(C(C)(C)C)cc3)nc2c1 | 8 | > 298 | > 298 | 1.6 | – |
| CCOc1ccc(/C=N/NC(=O)c2ccc3ccccc3c2)cc1OCC | 24 | > 276 | > 276 | 276 | – |
| Cc1ccc(CNC(=O)N/C=C/c2ccc(C(C)(C)C)cc2)cc1 | 10 | > 103 | > 103 | 103 | – |
| Cc1ccc(-c2nnc(/C=C/c3ccc(C(C)(C)C)cc3)o2)cc1 | 8 | > 157 | > 157 | 157 | – |
| C/C(=N\NC(=O)/C=C/c1ccc(C(F)(F)F)cc1)c1ccc(C2CCCCC2)cc1 | 12 | > 241 | > 241 | 241 | – |
| CCOc1ccc(/C=N/NC(=O)CC(=O)c2ccc(C(C)(C)C)cc2)cc1OCC | 4 | > 244 | > 244 | 244 | 81 |
| CC(C)(C)c1ccc(/C=C/C(=O)Nc2nc3ccccc3[nH]2)cc1 | 38 | > 157 | > 157 | 157 | – |
| CCOc1ccc(-c2nnc(CCc3ccccc3)o2)cc1OCC | 4 | > 98.4 | > 98.4 | 73.9 | – |
| C/C(=N\NC(=O)c1cnc2ccccc2c1)c1ccc(C2CCCCC2)cc1 | 19 | > 202 | > 202 | 202 | – |

Reference: ChEMBL document CHEMBL4196052, “Rational modifications on a benzylidene-acrylohydrazide antiviral scaffold, synthesis and evaluation of bioactivity against Chikungunya virus” (Eur J Med Chem, 2018)
